The results in this text go back to PubChem BioAssay (NCI).

For orientation: TGI means the concentration at which net growth stops. Read a high TGI as lower sensitivity of the cells. For orientation: GI50 means the concentration at which growth is held to half of that of the control.

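48-hour exposure; five concentrations; linearly interpolated endpoints. GI50 = concentration required for 50% inhibition of growth. At the TGI there is no net growth.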

Holding throughout (experiment): DTP human tumour cell line panel, 48 h
Assay [1] relates to UACC-257 melanoma.
In assay [2] the test system is COLO 205 colon.
Assay [3] relates to MDA-MB-435.
In assay [4] the test system is SF-268 CNS.
The test system of assay [5] is MALME-3M melanoma.
In assay [6] the test system is K-562 leukemia.
Assay [7] concerns A498 renal.
Assay [8] has as its system CAKI-1 renal.
Assay [9] concerns SR leukemia.
Assay [10] deals with SF-295 CNS.

For `COc1ccc(OC)c2c(=S)c3ccccc3[nH]c12`, the TGI in assay [1] was more than 100 µM; in assay [2], more than 100 µM; in assay [3], more than 100 µM; in assay [4], more than 100 µM; in assay [5] it was more than 100 µM; in assay [6], more than 92.6 µM. The TGI in assay [7], in [8], in [9] and in [10] was more than 100 µM each time.

In the case of `OCc1ccc(N(CCN2CCCC2)Cc2ccc(F)cc2)cc1Cl`, the GI50 in assay [1] was 14.7 µM; in [2], 8.66 µM; in [3], 15.9 µM; in [4], 21 µM; in assay [5], 22.3 µM; in assay [6] it was 16.2 µM. For the same compound, the GI50 in assay [7] is 1.97 µM; in assay [8], 4.15 µM; in assay [9], 16.1 µM. Further, the TGI in assay [1] was determined as 29 µM; in [2], 21.5 µM; in assay [3], 32.8 µM; in [4], 69 µM; in assay [5], 40.2 µM; in [6], 40.4 µM. Moreover, the TGI came to 11.9 µM in assay [7], 19.4 µM in [8] and 44.8 µM in assay [9].

`NS(=O)(=O)c1ccc(NC(=O)c2cccc3cc4ccccc4nc23)cc1`: the TGI in assay [1], in assay [2], in [3], in assay [4], in assay [5] and in assay [6] was more than 100 µM each time. The TGI in assay [7], in [8], in [9] and in [10] was more than 100 µM in each case.

Turning to `Cc1ccc(Sc2sc(-c3ccccc3)nc2[P+](c2ccccc2)(c2ccccc2)c2ccccc2)cc1`, the GI50 in assay [1] is 0.328 µM; in assay [2], 0.195 µM; in assay [3] it was 0.291 µM; in assay [4] it was 0.366 µM; in assay [5] it was 0.27 µM; in [6], 0.257 µM. Further, the concentration for 50% growth inhibition (GI50) is 0.137 µM in assay [7], 0.329 µM in [8], 0.368 µM in assay [9] and 0.243 µM in assay [10]. Further, the TGI in [1] is 1.11 µM; in assay [2] it was 0.412 µM; in assay [3], 0.882 µM; in [4], 1.43 µM; in assay [5], 0.92 µM; in assay [6], 1.54 µM. Moreover, the TGI in [7] was 0.568 µM; in assay [8], 1.04 µM; in assay [9], 3.77 µM; in assay [10] it was 0.722 µM.

As for `CS(=O)(=O)OCCN(CCOS(C)(=O)=O)c1ccc(C=O)cc1`, the TGI was 39.2 µM in [1]; 9.58 µM in [2]; 24.6 µM in assay [3]; 43.5 µM in assay [4]; 26.7 µM in assay [5]; more than 100 µM in assay [6]. The TGI in assay [7] stood at 4.43 µM; in assay [8], 2.08 µM; in assay [9], 14.7 µM; in assay [10], 25.9 µM.

With `O=C(Nc1cccc(-n2cc(-c3ccncc3)c(-c3ccc(O)c(Cl)c3)n2)c1)Nc1cccc(C(F)(F)F)c1`, the GI50 in assay [1] was 2.35 µM; in assay [2] it was 1.96 µM; in assay [3] it was 1.82 µM; in assay [4], 2.59 µM; in [5] it was 1.79 µM; in assay [6], 2.69 µM. For the same compound, the GI50 was 1.9 µM in [7], 1.87 µM in assay [8], 1.02 µM in assay [9] and 1.97 µM in assay [10]. The TGI in [1] was 5.48 µM; in assay [2] it was 3.73 µM; in assay [3] it was 4.65 µM; in [4], 9.98 µM; in assay [5], 6.45 µM; in assay [6], more than 100 µM. In addition, the TGI in [7] came to 8.99 µM; in assay [8], 5.84 µM; in assay [9] it was 4.71 µM; in [10], 5.47 µM.

In the case of `Cc1cc(N(CCCl)CCCl)ccc1/C=N/NC(=O)Cc1cc(=O)oc2cc(O)ccc12`, the TGI amounted to 58.1 µM in [1]; 36.7 µM in assay [2]; 38.5 µM in assay [3]; 56.4 µM in assay [4]; 27.7 µM in assay [5]; 66.1 µM in assay [6]. Also, the TGI in assay [7] was 45.3 µM; in assay [8], 26.3 µM; in assay [9], more than 100 µM; in assay [10], 50.8 µM.

As for `CCOC(=O)Nc1nc2c(C)cccc2s1`, the GI50 in assay [1] is 39.8 µM; in assay [2], more than 100 µM; in [3] it was 48.9 µM; in assay [4], 55.3 µM; in [5] it was 56.3 µM; in assay [6], 34.7 µM. The GI50 in [7] is 11.7 µM; in [8] it was 45.7 µM; in assay [9], 73.3 µM; in assay [10], 27.2 µM. For the same compound, the TGI in [1], in [2], in assay [3], in assay [4], in assay [5] and in assay [6] was more than 100 µM throughout. In addition, the TGI in assay [7] is 54.8 µM; in assay [8], more than 100 µM; in [9] it was more than 100 µM; in assay [10] it was more than 100 µM.

Consider `CN(C)CCCn1c2nc(=O)[nH]c(=O)c-2nc2cc(Cl)c(Cl)cc21`, for which the GI50 is 2.23 µM in assay [1]; 1.35 µM in [2]; 2.14 µM in assay [3]; 5.31 µM in [4]; 9.28 µM in assay [5]; 3.43 µM in [6]. Also, the GI50 is 16.1 µM in assay [7], 1.83 µM in assay [8] and 6.61 µM in assay [9]. Further, the TGI amounted to 5.66 µM in [1]; 2.83 µM in assay [2]; 5.2 µM in assay [3]; 17.6 µM in assay [4]; 26.8 µM in [5]; 15.3 µM in assay [6]. Also, the TGI in assay [7] was 30.4 µM; in assay [8], 4.66 µM; in assay [9], 30.5 µM.

Take `COc1ccccc1/C=C/C(=O)/C=C/c1ccccc1OC`: the GI50 is 1.69 µM in assay [1]; 1.94 µM in assay [2]; 2.04 µM in assay [3]; 1.92 µM in assay [4]; 2.11 µM in [5]; 2.83 µM in assay [6]. Also, the GI50 in [7] is 1.54 µM; in assay [8], 3.16 µM; in assay [9] it was 1.18 µM; in [10] it was 3.74 µM. Moreover, the TGI was 3.72 µM in assay [1]; 3.5 µM in assay [2]; 5.61 µM in assay [3]; 4.57 µM in [4]; 4.35 µM in assay [5]; 12.4 µM in [6]. The TGI in assay [7] amounted to 3.06 µM; in [8], 7.94 µM; in assay [9] it was 8.22 µM; in assay [10], 10.5 µM.

As to `Cn1c(=O)c(Oc2ccccc2)cc2cnc(NC3CCOCC3)nc21`, the GI50 in assay [1], in assay [2], in assay [3], in assay [4], in [5] and in assay [6] was more than 25 µM throughout. The GI50 in assay [7], in [8], in [9] and in assay [10] was more than 25 µM each time. Moreover, the TGI in assay [1], in assay [2], in assay [3], in assay [4], in [5] and in assay [6] was more than 25 µM each time. The TGI in assay [7], in [8], in [9] and in [10] was more than 25 µM in each case.

With `C=C1C(=O)O[C@H]2[C@H]1CC/C(Cn1cc(-c3cc(C)c(C)cc3C)nn1)=C\CC[C@@]1(C)O[C@@H]21`, the GI50 in assay [2] was 0.643 µM; in assay [3], 1.41 µM; in [4] it was 1.52 µM; in [5], 1.43 µM; in assay [6] it was 1.39 µM; in assay [7], 1.04 µM. The results for the GI50 in assay [8], in assay [9] and in assay [10] were 1.08 µM, 1.26 µM and 6.44 µM, respectively. For the same compound, the TGI was found to be 2.15 µM in assay [2]; 3.76 µM in assay [3]; 3.06 µM in assay [4]; 3 µM in assay [5]; 6.24 µM in assay [6]; 4 µM in [7]. The TGI is 2.39 µM in assay [8], 7.8 µM in assay [9] and 20.7 µM in assay [10].

As to `COc1ccc2c(c1)C1(C(=O)N2)C(C#N)=C(c2ccccc2)Nc2c1c(-c1ccccc1)nn2-c1ccccc1` (configuration not stated), the GI50 in assay [1] was 16 µM; in [2] it was 2.42 µM; in [3], 2.16 µM; in [4], 4.9 µM; in [5], 1.73 µM; in [6], 4.6 µM. The results for the GI50 in assay [7], in assay [9] and in [10] were 1.61 µM, 3.08 µM and 8.86 µM, respectively. Also, the TGI in [1] amounted to 31.5 µM; in assay [2], 5.83 µM; in [3], 5.29 µM; in assay [4], 17.9 µM; in assay [5] it was 3.84 µM; in assay [6], 22.9 µM. In addition, the TGI was 4.35 µM in assay [7], 8.65 µM in assay [9] and 21.1 µM in [10].
